Consider 22 compounds from US12503475B2 (Centessa Pharmaceuticals (UK) Limited, priority 2020, dated 2025).

This assay has as its target T1, human orexin type 2 receptor (hOX2R) (Homo sapiens, UniProt O43614).
T1 construct: expressed in transfected cells
T1 sequence (O43614 1-444): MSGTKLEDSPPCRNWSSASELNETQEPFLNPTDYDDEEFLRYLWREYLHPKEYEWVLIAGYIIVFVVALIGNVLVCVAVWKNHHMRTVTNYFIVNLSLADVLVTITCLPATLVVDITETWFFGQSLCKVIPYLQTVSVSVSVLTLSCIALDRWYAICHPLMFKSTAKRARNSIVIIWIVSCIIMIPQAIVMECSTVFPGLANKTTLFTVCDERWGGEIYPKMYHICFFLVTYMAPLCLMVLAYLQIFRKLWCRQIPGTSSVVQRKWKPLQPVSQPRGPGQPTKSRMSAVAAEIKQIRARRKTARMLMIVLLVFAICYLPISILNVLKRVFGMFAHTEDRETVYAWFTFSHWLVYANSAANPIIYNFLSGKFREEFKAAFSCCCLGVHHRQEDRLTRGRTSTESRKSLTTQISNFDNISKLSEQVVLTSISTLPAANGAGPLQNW
Briefly: Measurement of orexin type 2 receptor agonist activity (FLIPR calcium fluorescence). To be noted: CHO cells expressing hOX2R, FLIPR calcium fluorescence; for EC50: read-out: hOx2 pEC50 (converted); for Emax: CHO, read-out: hOx2 Emax (%). It counts as cell-based. A digest of the protocol:
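Agonism was read as fluorescence in cells stably expressing human OX2R. E. is the response at 10 μM relative to orexin A as full agonist (100%).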

Turning to `COC[C@@H](O)C(=O)N1CC2(CC2)[C@H](NS(=O)(=O)CF)[C@@H]1Cc1cccc(-c2ccccc2)c1F` [Compound 372, 1-fluoro-N-((6S,7S)-6-((2-fluoro-[1,1′-biphenyl]-3-yl)methyl)-5-((R)-2-hydroxy-3-methoxypropanoyl)-5-azaspiro[2.4]heptan-7-yl)methanesulfonamide], the EC50 is 1 to 10 nM and the Emax (in general, the greatest response seen or fitted, relative to the assay's reference) lay in the range of 90 to 100%.

`O=C([C@H](O)CF)N1CC2(CC2)[C@H](NS(=O)(=O)CF)[C@@H]1Cc1cc(F)cc(-c2cc(F)cc(F)c2)c1F` [Compound 373, 1-fluoro-N-((6S,7S)-5-((S)-3-fluoro-2-hydroxypropanoyl)-6-((2,3′,5,5′-tetrafluoro-[1,1′-biphenyl]-3-yl)methyl)-5-azaspiro[2.4]heptan-7-yl)methanesulfonamide]: the EC50 was 1 to 10 nM and the Emax is 90 to 100%.

Turning to `O=C(NC[C@@H]1CCO1)N1CC2(CC2)[C@H](NS(=O)(=O)CF)[C@@H]1Cc1cccc(-c2ccccc2)c1F` [Compound 374, (6S,7S)-6-((2-fluoro-[1,1′-biphenyl]-3-yl)methyl)-7-((fluoromethyl)sulfonamido)-N-(((S)-oxetan-2-yl)methyl)-5-azaspiro[2.4]heptane-5-carboxamide], the EC50 was 1 to 10 nM and the Emax was in the range of 90 to 100%.

For the compound `C[C@H](CF)NC(=O)N1CC2(CC2)[C@H](NS(=O)(=O)CF)[C@@H]1Cc1cc(F)cc(-c2ccccc2)c1F` [Compound 375, (6S,7S)-6-((2,5-difluoro-[1,1′-biphenyl]-3-yl)methyl)-7-((fluoromethyl)sulfonamido)-N-((R)-1-fluoropropan-2-yl)-5-azaspiro[2.4]heptane-5-carboxamide], the EC50 is 0.0794 to 1 nM and the Emax was in the range of 90 to 100%.

Regarding `CC[C@](C)(O)C(=O)N1CC2(CC2)[C@H](NS(=O)(=O)CF)[C@@H]1Cc1cccc(-c2cccc(F)c2)c1F` [Compound 376, N-((6S,7S)-6-((2,3′-difluoro-[1,1′-biphenyl]-3-yl)methyl)-5-((S)-2-hydroxy-2-methylbutanoyl)-5-azaspiro[2.4]heptan-7-yl)-1-fluoromethanesulfonamide], the EC50 was 1 to 10 nM and the Emax was 90 to 100%.

In the case of `O=C([C@@H](O)C1CC1)N1CC2(CC2)[C@H](NS(=O)(=O)C(F)F)[C@@H]1Cc1cccc(-c2cc(F)cc(F)c2)c1F` [Compound 377, N-((6S,7S)-5-((S)-2-cyclopropyl-2-hydroxyacetyl)-6-((2,3′,5′-trifluoro-[1,1′-biphenyl]-3-yl)methyl)-5-azaspiro[2.4]heptan-7-yl)-1,1-difluoromethanesulfonamide], the EC50 is 0.0794 to 1 nM and the Emax lay in the range of 90 to 100%.

For the compound `C[C@@H](F)C(=O)N1CC2(CC2)[C@H](NS(=O)(=O)C(F)F)[C@@H]1Cc1cccc(-c2cc(F)cc(F)c2)c1F` [Compound 378, 1,1-difluoro-N-((6S,7S)-5-((R)-2-fluoropropanoyl)-6-((2,3′,5′-trifluoro-[1,1′-biphenyl]-3-yl)methyl)-5-azaspiro[2.4]heptan-7-yl)methanesulfonamide], the EC50 was 0.0794 to 1 nM and the Emax fell in the range of 90 to 100%.

For the compound `CC[C@@](C)(O)C(=O)N1CC2(CC2)[C@H](NS(=O)(=O)CF)[C@@H]1Cc1cccc(-c2cccc(F)c2)c1F` [Compound 379, N-((6S,7S)-6-((2,3′-difluoro-[1,1′-biphenyl]-3-yl)methyl)-5-((R)-2-hydroxy-2-methylbutanoyl)-5-azaspiro[2.4]heptan-7-yl)-1-fluoromethanesulfonamide], the EC50 was 1 to 10 nM and the Emax was in the range of 90 to 100%.

Take `O=C([C@H](O)CF)N1CC2(CC2)[C@H](NS(=O)(=O)C(F)F)[C@@H]1Cc1cccc(-c2cccc(F)c2)c1F` [Compound 380, N-((6S,7S)-6-((2,3′-difluoro-[1,1′-biphenyl]-3-yl)methyl)-5-((S)-3-fluoro-2-hydroxypropanoyl)-5-azaspiro[2.4]heptan-7-yl)-1,1-difluoromethanesulfonamide]: the EC50 is 0.0794 to 1 nM and the Emax was 90 to 100%.

`N#CC1(C(=O)N2CC3(CC3)[C@H](NS(=O)(=O)C(F)F)[C@@H]2Cc2cccc(-c3cc(F)cc(F)c3)c2F)CCC1` [Compound 381, N-((6S,7S)-5-(1-cyanocyclobutane-1-carbonyl)-6-((2,3′,5′-trifluoro-[1,1′-biphenyl]-3-yl)methyl)-5-azaspiro[2.4]heptan-7-yl)-1,1-difluoromethanesulfonamide]: the EC50 was 1 to 10 nM and the Emax was 90 to 100%.

Turning to `O=C(NCC(F)F)N1CC2(CC2)[C@H](NS(=O)(=O)C(F)F)[C@@H]1Cc1cccc(-c2cc(F)cc(F)c2)c1F` [Compound 382, (6S,7S)-N-(2,2-difluoroethyl)-7-((difluoromethyl)sulfonamido)-6-((2,3′,5′-trifluoro-[1,1′-biphenyl]-3-yl)methyl)-5-azaspiro[2.4]heptane-5-carboxamide], the EC50 is 0.0794 to 1 nM and the Emax fell in the range of 90 to 100%.

`O=C(NCC(F)(F)F)N1CC2(CC2)[C@H](NS(=O)(=O)C(F)F)[C@@H]1Cc1cc(F)cc(-c2ccccc2)c1F` [Compound 383, (6S,7S)-6-((2,5-difluoro-[1,1′-biphenyl]-3-yl)methyl)-7-((difluoromethyl)sulfonamido)-N-(2,2,2-trifluoroethyl)-5-azaspiro[2.4]heptane-5-carboxamide]: the EC50 was 1 to 10 nM and the Emax fell in the range of 90 to 100%.

As to `O=C([C@@H](O)C1CC1)N1CC2(CC2)[C@H](NS(=O)(=O)C(F)F)[C@@H]1Cc1cc(F)cc(-c2cc(F)cc(F)c2)c1F` [Compound 384, N-((6S,7S)-5-((S)-2-cyclopropyl-2-hydroxyacetyl)-6-((2,3′,5,5′-tetrafluoro-[1,1′-biphenyl]-3-yl)methyl)-5-azaspiro[2.4]heptan-7-yl)-1,1-difluoromethanesulfonamide], the EC50 was 1 to 10 nM and the Emax lay within 90 to 100%.

For the compound `O=C([C@@H](O)C1CC1)N1CC2(CC2)[C@H](NS(=O)(=O)C(F)F)[C@@H]1Cc1cc(F)cc(-c2ccccc2)c1F` [Compound 385], the EC50 was 0.0794 to 1 nM and the maximal effect (Emax) fell in the range of 90 to 100%.

On to `COCC1(C(=O)N2CC3(CC3)[C@H](NS(C)(=O)=O)[C@@H]2Cc2cccc(-c3ccccc3)c2F)CC1` [Compound 386, N-((6S,7S)-6-((2-fluoro-[1,1′-biphenyl]-3-yl)methyl)-5-(1-(methoxymethyl)cyclopropane-1-carbonyl)-5-azaspiro[2.4]heptan-7-yl)methanesulfonamide], for which the EC50 is 1 to 10 nM and the Emax fell in the range of 90 to 100%.

`O=C(NCC(F)F)N1CC2(CC2)[C@H](NS(=O)(=O)C(F)F)[C@@H]1Cc1cc(F)cc(-c2cc(F)cc(F)c2)c1F` [Compound 387]: the EC50 was 1 to 10 nM and the Emax was 90 to 100%.

Consider `C[C@H](CF)NC(=O)N1CC2(CC2)[C@H](NS(=O)(=O)C(F)F)[C@@H]1Cc1cc(F)cc(-c2ccccc2)c1F` [Compound 388, (6S,7S)-6-((2,5-difluoro-[1,1′-biphenyl]-3-yl)methyl)-7-((difluoromethyl)sulfonamido)-N-((R)-1-fluoropropan-2-yl)-5-azaspiro[2.4]heptane-5-carboxamide], for which the EC50 was 1 to 10 nM and the Emax lay in the range of 90 to 100%.

In the case of `O=C(NCC(F)F)N1CC2(CC2)[C@H](NS(=O)(=O)C(F)F)[C@@H]1Cc1cc(F)cc(-c2ccccc2)c1F` [Compound 389, (6S,7S)-6-((2,5-difluoro-[1,1′-biphenyl]-3-yl)methyl)-N-(2,2-difluoroethyl)-7-((difluoromethyl)sulfonamido)-5-azaspiro[2.4]heptane-5-carboxamide], the EC50 was 1 to 10 nM and the Emax was 90 to 100%.

Turning to `O=C([C@H](O)CF)N1CC2(CC2)[C@H](NS(=O)(=O)C(F)F)[C@@H]1Cc1cc(F)cc(-c2ccccc2)c1F` [Compound 390, N-((6S,7S)-6-((2,5-difluoro-[1,1′-biphenyl]-3-yl)methyl)-5-((S)-3-fluoro-2-hydroxypropanoyl)-5-azaspiro[2.4]heptan-7-yl)-1,1-difluoromethanesulfonamide], the EC50 was 1 to 10 nM and the Emax lay within 90 to 100%.

As to `O=C([C@H](O)CF)N1CC2(CC2)[C@H](NS(=O)(=O)CF)[C@@H]1Cc1cccc(-c2cc(F)cc(F)c2)c1F` [Compound 391, 1-fluoro-N-((6S,7S)-5-((S)-3-fluoro-2-hydroxypropanoyl)-6-((2,3′,5′-trifluoro-[1,1′-biphenyl]-3-yl)methyl)-5-azaspiro[2.4]heptan-7-yl)methanesulfonamide], the EC50 is 0.0794 to 1 nM and the Emax was in the range of 90 to 100%.

Consider `O=C([C@H](O)CF)N1CC2(CC2)[C@H](NS(=O)(=O)C(F)F)[C@@H]1Cc1cccc(-c2cc(F)cc(F)c2)c1F` [Compound 392, 1,1-difluoro-N-((6S,7S)-5-((S)-3-fluoro-2-hydroxypropanoyl)-6-((2,3′,5′-trifluoro-[1,1′-biphenyl]-3-yl)methyl)-5-azaspiro[2.4]heptan-7-yl)methanesulfonamide], for which the EC50 was 0.0794 to 1 nM and the Emax lay in the range of 90 to 100%.

For the compound `C[C@H](F)C(=O)N1CC2(CC2)[C@H](NS(=O)(=O)CF)[C@@H]1Cc1cc(F)cc(-c2cccc(F)c2)c1F` [Compound 393, 1-fluoro-N-((6S,7S)-5-((S)-2-fluoropropanoyl)-6-((2,3′,5-trifluoro-[1,1′-biphenyl]-3-yl)methyl)-5-azaspiro[2.4]heptan-7-yl)methanesulfonamide], the EC50 was 1 to 10 nM and the Emax lay in the range of 90 to 100%.
